Type in all cases: cell-based
For test [1], the system named is HCV 1a RLuc cells (dicistronic genotype 1a H77 replicon, RLuc reporter). As to the kind of experiment: microbe, parasite or virus in culture. The following applies: Hepatitis C virus, genotype 1a replicon; read-out: 1a. The method in brief: (§1)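 Renilla luciferase HCV replicon cells: dicistronic 1b Con1, 1a H77 or 2a JFH-1 replicons, or a JFH-1 chimera carrying J6 NS5A (M31 present). Compound in DMSO serial dilutions, 72 h incubation, then lysis and luciferase read. EC50 by non-linear regression.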
(In antiviral work, replicon cells carry a viral genome segment that copies itself.)

Test [2] concerns HCV 1b RLuc cells (dicistronic genotype 1b Con1 replicon, RLuc reporter). The test is described as follows: microbe, parasite or virus in culture. The following applies: Hepatitis C virus, read-out: 1b (nM). The method in brief: as §1
In test [3] the test system is HCV 2a JFH-1 Rluc cells (dicistronic genotype 2a JFH-1 replicon, RLuc reporter). As to the kind of experiment: microbe, parasite or virus in culture. The following applies: Hepatitis C virus, genotype 2a JFH-1 replicon; read-out: 2a JFH. The method in brief: as §1
In test [4] the test system is HCV 2b Rluc cells (NS5A chimeric genotype 2a JFH-1 replicon with genotype 2b MD2b-1 NS5A gene, M31 present). As to the kind of experiment: microbe, parasite or virus in culture. Particulars: Hepatitis C virus, read-out: 2b. The method in brief:
(§2)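 Replicon cells stably carrying the listed RLuc-encoding dicistronic replicons were seeded and treated with DMSO serial dilutions of compound (10 mM stocks) diluted into culture medium. After 72 h, cells were lysed and Renilla luciferase activity measured. EC50 was derived by non-linear regression.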

In test [5] the test system is HCV 3a RLuc cells (NS5A chimeric genotype 1b Con1 replicon with consensus genotype 3a NS5A gene). As to the kind of experiment: microbe, parasite or virus in culture. Particulars: Hepatitis C virus, read-out: 3a, genotype 3a replicon. The method in brief: as §2
The test system of test [6] is HCV 4a Rluc cells (NS5A chimeric genotype 1b Con1 replicon with genotype 4a NS5A gene). The test is described as follows: microbe, parasite or virus in culture. The following applies: Hepatitis C virus, read-out: 4a. The method in brief: as §2
Test [7] relates to Q30R in genotype 1a NS5A, 1a Rluc replicon transfected into Huh-7 cured-51 cells. As to the kind of experiment: HCV replicon assay, resistance mutant 1a Q30R. The following applies: Hepatitis C virus, Huh-7, read-out: 1a Q30R. The method in brief:
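Cells were Huh-7 cured-51 transfected with replicon RNA of a genotype 1a H77 RLuc replicon carrying site-directed Q30R in NS5A.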

Test [8] concerns HCV 2a Rluc cells (NS5A chimeric genotype 2a JFH-1 replicon with genotype 2a J6 strain NS5A gene, M31 present). As to the kind of experiment: HCV replicon reporter assay, genotype 2a J6 (M31 present). The following applies: Hepatitis C virus, read-out: 2a J6. The method in brief:
as §1

Bounds are passed on as bounds.

As to `COC[C@H]1C[C@@H](c2nc3ccc4cc(-c5ccc6c(ccc7nc([C@@H]8CCCN8C(=O)[C@@H](NC(=O)OC)C(C)C)[nH]c76)c5)ccc4c3[nH]2)N(C(=O)[C@@H](NC(=O)OC)C(C)C)C1` [Example 398], the EC50 was 0.001 to 0.999 nM in test [1]; 0.023 nM in test [2]; 0.001 to 0.999 nM in test [3]; 0.001 to 0.999 nM in test [4]; 0.001 to 0.99 nM in test [5]; 0.001 to 0.99 nM in test [6]. For the same compound, the EC50 in test [7] and in test [8] was 0.001 to 0.999 nM throughout.
Turning to `COC(=O)N[C@H](C(=O)N1[C@@H]2C[C@@H]2C[C@H]1c1ncc(-c2cc3c4c(c2)OCc2cc(-c5cnc([C@@H]6C[C@H]7C[C@H]7N6C(=O)[C@@H](NC(=O)OC)C(C)C)[nH]5)cc(c2-4)OC3)[nH]1)C(C)C` [Example 414], the EC50 in test [1] is 0.001 to 0.999 nM; in test [2], 0.022 nM; in test [3] it was 0.001 to 0.999 nM; in test [4], 1 to 44 nM; in test [5] it was 0.001 to 0.99 nM; in test [6], 0.001 to 0.99 nM. The EC50 in test [7] and in test [8] was 1 to 44 nM each time.
For `CCC(=O)N[C@@H](C(=O)N1[C@@H]2CC[C@@H](C2)[C@H]1c1nc2ccc3cc(-c4ccc5c(ccc6nc([C@@H]7CCCN7C(=O)[C@@H](NC(=O)OC)C(C)C)[nH]c65)c4)ccc3c2[nH]1)c1ccccc1` [Example 418], the EC50 in test [1] is 0.001 to 0.999 nM; in test [2] it was 0.035 nM; in test [3] it was 0.001 to 0.999 nM; in test [4] it was 0.001 to 0.999 nM; in test [5] it was 0.001 to 0.99 nM; in test [6], 0.001 to 0.99 nM. Besides, the figures for the EC50 in test [7] and in test [8] were 1 to 44 nM and 0.001 to 0.999 nM, respectively.
As to `COC(=O)N[C@H](C(=O)N1CCC[C@H]1c1ncc(-c2ccc3c(c2)COc2cc4c(ccc5nc([C@@H]6CCCN6C(=O)[C@@H](NC(=O)OC)C(C)C)[nH]c54)cc2-3)[nH]1)C(C)C` [Example 422], the EC50 was 0.001 to 0.999 nM in test [1]; 0.017 nM in test [2]; 0.001 to 0.999 nM in test [3]; 0.001 to 0.999 nM in test [4]; 0.001 to 0.99 nM in test [5]; 0.001 to 0.99 nM in test [6]. Also, the results for the EC50 in test [7] and in test [8] were 0.001 to 0.999 nM and 1 to 44 nM, respectively.
For the compound `COC(=O)N[C@H](C(=O)N1CCC[C@H]1c1ncc(-c2ccc3c(c2)COc2cc4c(ccc5nc([C@@H]6CCCN6C(=O)[C@H](NC(=O)OC)c6ccccc6)[nH]c54)cc2-3)[nH]1)C(C)C` [Example 423], the EC50 was 0.001 to 0.999 nM in test [1]; 0.02 nM in test [2]; 0.001 to 0.999 nM in test [3]; 0.001 to 0.999 nM in test [4]; 0.001 to 0.99 nM in test [5]; 0.001 to 0.99 nM in test [6]. For the same compound, the EC50 in test [7] and in test [8] was 0.001 to 0.999 nM throughout.
Regarding `COC(=O)N[C@H](C(=O)N1[C@H]2CC[C@H](C2)[C@H]1c1nc2ccc3cc(-c4ccc(-c5cnc([C@@H]6CCCN6C(=O)[C@H](NC(=O)OC)c6ccccc6)[nH]5)cc4)ccc3c2[nH]1)C(C)C` [Example 424], the EC50 was 0.001 to 0.999 nM in test [1]; 0.028 nM in test [2]; 0.001 to 0.999 nM in test [3]; 0.001 to 0.999 nM in test [4]; 0.001 to 0.99 nM in test [5]; 0.001 to 0.99 nM in test [6]. The figures for the EC50 in test [7] and in test [8] were 1 to 44 nM and 0.001 to 0.999 nM, respectively.
Regarding `COC(=O)N[C@H](C(=O)N1CCC[C@H]1c1nc2ccc3cc4c(cc3c2[nH]1)OCc1cc(-c2cnc([C@@H]3CCCN3C(=O)[C@H](NC(=O)OC)c3ccccc3)[nH]2)ccc1-4)C(C)C` [Example 426], the EC50 was 0.001 to 0.999 nM in test [1]; 0.033 nM in test [2]; 0.001 to 0.999 nM in test [3]; 0.001 to 0.999 nM in test [4]; 0.001 to 0.99 nM in test [5]; 0.001 to 0.99 nM in test [6]. Also, the EC50 in test [7] and in test [8] was 0.001 to 0.999 nM in each case.
In the case of `COC(=O)N[C@H](C(=O)N1[C@H]2CC[C@H](C2)[C@H]1c1nc2ccc3cc(-c4ccc5c(ccc6nc([C@@H]7CCCN7C(=O)[C@H](NC(=O)OC)c7ccccc7)[nH]c65)c4)ccc3c2[nH]1)C(C)C` [Example 430], the EC50 in test [1] was 0.001 to 0.999 nM; in test [2] it was 0.036 nM; in test [3] it was 0.001 to 0.999 nM; in test [4], 0.001 to 0.999 nM; in test [5] it was 0.001 to 0.99 nM; in test [6], 0.001 to 0.99 nM. Moreover, the EC50 in test [7] lay within 1 to 44 nM; in test [8], 0.001 to 0.999 nM.
For `COC[C@H]1C[C@@H](c2nc3ccc4cc(-c5ccc(-c6cnc([C@@H]7CCCN7C(=O)[C@@H](NC(=O)OC)C(C)C)[nH]6)cc5)ccc4c3[nH]2)N(C(=O)[C@H](NC(=O)OC)c2ccccc2)C1` [Example 433], the EC50 in test [1] was 0.001 to 0.999 nM; in test [2] it was 0.02 nM; in test [3], 0.001 to 0.999 nM; in test [4], 0.001 to 0.999 nM; in test [5], 0.001 to 0.99 nM; in test [6], 0.001 to 0.99 nM. Also, the EC50 in test [7] and in test [8] was 0.001 to 0.999 nM each time.
For the compound `COC[C@H]1C[C@@H](c2nc3ccc4cc(-c5ccc6c(ccc7nc([C@@H]8C[C@H](COC)CN8C(=O)[C@@H](NC(=O)OC)C(C)C)[nH]c76)c5)ccc4c3[nH]2)N(C(=O)[C@@H](NC(=O)OC)C(C)C)C1` [Example 436], the EC50 is 0.001 to 0.999 nM in test [1]; 0.051 nM in test [2]; 0.001 to 0.999 nM in test [3]; 0.001 to 0.999 nM in test [4]; 0.001 to 0.99 nM in test [5]; 0.001 to 0.99 nM in test [6]. Besides, the EC50 in test [7] and in test [8] was 0.001 to 0.999 nM in each case.
As for `COC[C@H]1C[C@@H](c2nc3ccc4cc(-c5ccc6c(ccc7nc([C@@H]8C[C@H](COC)CN8C(=O)[C@H](NC(=O)OC)c8ccccc8)[nH]c76)c5)ccc4c3[nH]2)N(C(=O)[C@@H](NC(=O)OC)C(C)C)C1` [Example 437], the EC50 in test [1] was 0.001 to 0.999 nM; in test [2], 0.048 nM; in test [3] it was 0.001 to 0.999 nM; in test [4], 0.001 to 0.999 nM; in test [5], 0.001 to 0.99 nM; in test [6], 0.001 to 0.99 nM. The EC50 in test [7] and in test [8] was 0.001 to 0.999 nM throughout.
For the compound `COC(=O)N[C@H](C(=O)N1CCC[C@H]1c1ncc(-c2ccc(-c3ccc4c(ccc5nc([C@@H]6CCCN6C(=O)[C@@H](NC(=O)OC)C(C)C)[nH]c54)c3)c(C#Cc3ccccc3)c2)[nH]1)C(C)C` [Example 438], the EC50 in test [1] was 0.001 to 0.999 nM; in test [2], 0.003 nM; in test [3], 0.001 to 0.999 nM; in test [4], > 44 nM; in test [5], 0.001 to 0.99 nM; in test [6], 0.001 to 0.99 nM. Besides, the EC50 in test [7] is 1 to 44 nM; in test [8] it was > 44 nM.
`COC[C@H]1C[C@@H](c2ncc(-c3ccc(-c4ccc5c(ccc6nc([C@@H]7CCCN7C(=O)[C@@H](NC(=O)OC)C(C)C)[nH]c65)c4)cc3)[nH]2)N(C(=O)[C@H](NC(=O)OC)c2ccccc2)C1` [Example 446]: the EC50 in test [1] was 0.001 to 0.999 nM; in test [2], 0.03 nM; in test [3], 0.001 to 0.999 nM; in test [4], 0.001 to 0.999 nM; in test [5] it was 0.001 to 0.99 nM; in test [6], 0.001 to 0.99 nM. Also, the EC50 in test [7] and in test [8] was 0.001 to 0.999 nM in each case.

(Values after patent US10344019B2 (priority 2010, dated 2019).)
